The text below walks through data of US20240358692A1, “TREATMENT OF SCLERODERMA” (Aisa Pharma, Inc., priority 2023, published 2024).

SMILES strings stand for the structures.

Data set [1] relates to participants with SSc-RP. Description: SHAQ - Visual Analog Scale - Finger Ulcers. Type of data set: in vivo, human. The text has this: The standard, validated, patient reported outcome measures tool for SSc patients, the Scleroderma Health Assessment Questionnaire (SHAQ), will be used to assess the participant qualify of life. Details are attached in the Appendix. The participant quality of life will be scored, and a disability index calculated for each questionnaire completed by the patient at Screening and each in-clinic visit. The absolute change in participant quality of life from baseline to the end of each dosing period will be calculated similar to frequency data as before.
The standard, validated, patient reported outcome measures tool for SSc patients, the SHAQ, was collected at the time points specified in the study schedules (FIG. 2 and FIGS. 4A and 4B) to assess the participant's quality of life. The SHAQ included a Raynaud's VAS that will also be reported separately.

Data set [2] has as its system participants with SSc-RP. Type of data set: in vivo. The following applies: tadalafil monotherapy group. The text has this:
Treatment-emergent AEs (TEAEs) are defined as AEs that occur or worsen after the dose of study drug. If the timing of the start of an AE could not be determined unambiguously from the start or end dates provided, it will be assumed to be a TEAE. An AE is considered related if the relationship to either of the study drug has been indicated as possibly or probably or definite related by the investigator. An AE leading to study withdrawal is defined as an AE that cause a subject early terminated from the study. AEs will be identified as emerging in the following parts: • TEAEs for Part A will be those that started during Part A (i.e., from the first dose in Part A to end of follow up of Part A) • TEAEs for Part B will be those that started during Part B (i.e., from the first dose in Part B to end of follow-up of Part B).
In this study, AEs and SAEs were reported for all participants from the time of randomization until the completion of the Follow-up/EOS visit. Adverse events that were ongoing at the EOS visit were marked as Not Recovered/Not resolved on the AE eCRF page (see Section 9.4.4). The Investigator did full AE review during in-clinic visit. All spontaneously volunteered and enquired for, as well as observed AEs, were recorded in the participant's medical records and the eCRF.
Severity of AEs were graded by the Investigator as one of: • Mild (Grade 1): A type of AE that is usually transient and may require only minimal treatment or therapeutic intervention.

Where [3] appears, read: Tadalafil 5 mg (N = 5), Day 12, PP Population, Part A.

In the case of `CN1CC(=O)N2[C@H](c3ccc4c(c3)OCO4)c3[nH]c4ccccc4c3C[C@@H]2C1=O` [Tadalafil], in the data set with participants with SSc-RP [1] (setting [3]), the “SHAQ Visual Analogue Scale - Finger Ulcers, Change from Baseline, Mean” value turned out to be 0.250; the “SHAQ Visual Analogue Scale - Finger Ulcers, Change from Baseline, Median” value stood at 0.000; the “SHAQ Visual Analogue Scale - Finger Ulcers, Percent Change from Baseline, Mean” value is reported as 6.10%; the “SHAQ Visual Analogue Scale - Finger Ulcers, Percent Change from Baseline, Median” value amounted to 6.10%. Further, in the data set on participants with SSc-RP [1] (tadalafil 5 mg), the “VAS Finger Ulcers Change from Baseline Max” value was determined as 1.00, the “VAS Finger Ulcers Change from Baseline Mean” value is reported as 0.250, the “VAS Finger Ulcers Change from Baseline Median” value stood at 0.000 and the “VAS Finger Ulcers Change from Baseline Min” value amounted to 0.00. For the same compound, in the data set with participants with SSc-RP [1] (tadalafil 5 mg), the “VAS Finger Ulcers Change from Baseline Q1” value came to 0.000, the “VAS Finger Ulcers Change from Baseline Q3” value is recorded as 0.500, the “VAS Finger Ulcers Day 12 Max” value was found to be 9.20 and the “VAS Finger Ulcers Day 12 Median” value turned out to be 0.050. In the data set on participants with SSc-RP [1] (tadalafil 5 mg), the “VAS Finger Ulcers Day 12 Min” value is given as 0.00, the “VAS Finger Ulcers Day 12 Q1” value is reported as 0.000, the “VAS Finger Ulcers Day 12 Q3” value was determined as 4.650 and the “VAS Finger Ulcers Percent Change from Baseline Max” value is reported as 12.2%. In the data set on participants with SSc-RP [1] (tadalafil 5 mg), the “VAS Finger Ulcers Percent Change from Baseline Mean” value turned out to be 6.10%, the “VAS Finger Ulcers Percent Change from Baseline Median” value came to 6.10%, the “VAS Finger Ulcers Percent Change from Baseline Min” value is on record as 0.0% and the “VAS Finger Ulcers Percent Change from Baseline Q1” value came out at 0.00%. In addition, the “VAS Finger Ulcers Percent Change from Baseline Q3” value in the data set on participants with SSc-RP [1] (tadalafil 5 mg) stood at 12.20%. The “Worst AE (group)” value with participants with SSc-RP [2] is recorded as “Worst AE in tadalafil”.
